Experiments:
rabbit [1] = conditions: Prenatal developmental toxicity study, new zealand white, Oral, Gavage/Intubation, dose end: 19 GD, group: maternal
mouse [2] = conditions: Prenatal developmental toxicity study, cd1, Oral, Gavage/Intubation, dose end: 15 GD
rat [3] = conditions: Subchronic oral toxicity in rodents, wistar, Feed, dose end: 13 week
dog [4] = conditions: Chronic toxicity, beagle, Oral, Feed, dose end: 80 day, group: systemic
rat [5] = conditions: Subchronic oral toxicity in rodents, wistar, Feed, dose end: 13 week, group: systemic
dog [6] = conditions: Chronic toxicity, beagle, Oral, Feed, dose end: 52 week, group: systemic
rat [7] = conditions: Combined chronic toxicity/carcinogenicity, sprague dawley, Oral, Feed, dose end: 104 week
mouse [8] = conditions: Carcinogenicity, other, Oral, [Not Specified], dose end: 104 week, group: systemic
rat [9] = conditions: Prenatal developmental toxicity study, wistar, Oral, Gavage/Intubation, dose end: 15 GD
rat [10] = conditions: Combined chronic toxicity/carcinogenicity, wistar, Oral, Feed, dose end: 106 week, group: systemic
dog [11] = conditions: Subchronic oral toxicity in nonrodent, beagle, Feed, dose end: 90 day, group: systemic, systemic / hematology / methemoglobin / methemoglobin
rabbit [12] = conditions: Prenatal developmental toxicity study, chinchilla, Oral, Gavage/Intubation, dose end: 27 GD
rat [13] = conditions: Multigenerational reproductive toxicity study, other, Oral, Feed, dose end: 2 generation
rat [14] = conditions: Prenatal developmental toxicity study, wistar, Oral, Gavage/Intubation, dose end: 15 GD; remark: listed apart in the source
dog [15] = conditions: Chronic toxicity, beagle, Oral, Capsule, dose end: 104 week, group: systemic
mouse [16] = conditions: Carcinogenicity, cd1, Oral, Feed, dose end: 78 week, group: systemic
rat [17] = conditions: Combined chronic toxicity/carcinogenicity, sprague dawley, Oral, Feed, dose end: 24 month, group: systemic
dog [18] = conditions: Subchronic oral toxicity in nonrodent, beagle, Capsule, dose end: 98 day, group: systemic
rat [19] = conditions: Subchronic oral toxicity in rodents, sprague dawley, Feed, dose end: 13 week, group: systemic
[20] = systemic / in life observation / mortality / mortality + reproductive / reproductive performance / premature delivery / premature delivery
[21] = group: developmental, systemic / in life observation / body weight / fetal weight
[22] = group: maternal, reproductive / reproductive performance / resorptions / resorptions + systemic / in life observation / body weight / body weight gain + …
[23] = group: cholinesterase, cholinesterase / cholinesterase / cholinesterase / brain cholinesterase (che) + cholinesterase / cholinesterase / cholinesterase / …
[24] = group: systemic, systemic / hematology / anemia / anemia - macrocytic + systemic / hematology / erythrocyte (rbc) count differential / erythrocyte (rbc) + …
[25] = systemic / hematology / methemoglobin / methemoglobin
[26] = systemic / hematology / methemoglobin / methemoglobin + systemic / urinalysis / appearance and color / appearance and color
[27] = systemic / clinical chemistry / thyroxine (t4) / thyroxine (t4), total + systemic / hematology / methemoglobin / methemoglobin + systemic / …
[28] = systemic / hematology / methemoglobin / methemoglobin + systemic / clinical chemistry / triiodothyronine (t3) / triiodothyronine (t3), total
[29] = group: cholinesterase, cholinesterase / cholinesterase / cholinesterase / brain cholinesterase (che)
[30] = group: cholinesterase, cholinesterase / cholinesterase / cholinesterase / erythrocyte cholinesterase (che) + cholinesterase / cholinesterase / cholinesterase / …
[31] = group: systemic, systemic / hematology / erythrocyte (rbc) count differential / erythrocyte (rbc) + systemic / hematology / hematocrit (hct) / hematocrit (…
[32] = systemic / hematology / anemia / anemia - heinz body + systemic / in life observation / body weight / body weight
[33] = group: developmental, developmental / developmental malformation / bone / absent + developmental / developmental malformation / bone / bipartite ossification + …
[34] = group: maternal, systemic / in life observation / body weight / body weight gain + systemic / in life observation / food consumption / food consumption
[35] = systemic / hematology / anemia / anemia - hemolytic + systemic / hematology / erythrocyte (rbc) count differential / erythrocyte (rbc) + …
[36] = systemic / pathology microscopic / thyroid gland / hyperplasia
[37] = group: developmental, systemic / in life observation / body weight / fetal weight + developmental / developmental malformation / bone / unossified
[38] = group: maternal, systemic / in life observation / body weight / body weight gain + systemic / in life observation / food consumption / food consumption + …
[39] = group: offspring, systemic / organ weight / kidney / relative to body weight + systemic / organ weight / liver / relative to body weight
[40] = group: parental, systemic / organ weight / spleen / absolute + systemic / organ weight / spleen / relative to body weight + systemic / hematology / anemia / …
[41] = group: parental, systemic / organ weight / spleen / absolute + systemic / organ weight / spleen / relative to body weight + systemic / in life observation / …
[42] = group: reproductive, reproductive / offspring survival early / litter size / litter size
[43] = group: developmental, developmental / developmental malformation / bone / incomplete ossification + developmental / developmental malformation / bone / unossified…
[44] = group: maternal, systemic / hematology / methemoglobin / methemoglobin
[45] = group: maternal, systemic / hematology / methemoglobin / methemoglobin + systemic / hematology / heinz body / heinz body + systemic / in life observation / …
[46] = systemic / in life observation / clinical signs / emesis + systemic / in life observation / clinical signs / salivation + systemic / in life…
[47] = systemic / in life observation / clinical signs / soft stools + systemic / in life observation / clinical signs / emesis
[48] = systemic / in life observation / body weight / body weight + systemic / organ weight / liver / relative to body weight + systemic / clinical…
[49] = systemic / pathology gross / liver / enlarged + systemic / pathology microscopic / liver / glycogen deposition
[50] = systemic / pathology gross / liver / enlarged + systemic / pathology microscopic / liver / glycogen deposition + systemic / clinical …
[51] = systemic / clinical chemistry / aspartate aminotransferase (ast/sgot) / aspartate aminotransferase (ast/sgot)

With [O]=[Cr](=[O])([OH])[OH] [Chromic(VI) acid] the LOAEL (rabbit [1]; systemic / in life observation / mortality / mortality) was 2 mg/kg/day, the LEL (rabbit [1]; [20]) was 2 mg/kg/day and the NEL (rabbit [1]; [20]) was 0.5 mg/kg/day. For the same molecule, the NOAEL (rabbit [1]; [20]) was 0.5 mg/kg/day, the LEL (mouse [2]; [21]) was 120 mg/kg/day and the LOAEL (mouse [2]; [21]) was over 120 mg/kg/day. The NEL (mouse [2]; [21]) was 60 mg/kg/day, the NOAEL (mouse [2]; [21]) was at least 120 mg/kg/day and the LEL (mouse [2]; [22]) was 120 mg/kg/day. The LOAEL (mouse [2]; [22]) was 120 mg/kg/day, the NEL (mouse [2]; [22]) was 60 mg/kg/day and the NOAEL (mouse [2]; [22]) was 60 mg/kg/day.

Molecule CCOC(=O)Nc1cccc(OC(=O)Nc2ccccc2)c1 [Desmedipham] has an LEL (rat [3]; [23]) of 15 mg/kg/day, an LOAEL (rat [3]; [23]) of 15 mg/kg/day and an NEL (rat [3]; [23]) of under 15 mg/kg/day. For the same molecule, the NOAEL (rat [3]; [23]) was under 15 mg/kg/day, the LEL (rat [3]; [24]) was 15 mg/kg/day and the LOAEL (rat [3]; [24]) was 15 mg/kg/day. The NEL (rat [3]; [24]) was under 15 mg/kg/day, the NOAEL (rat [3]; [24]) was under 15 mg/kg/day and the LOAEL (dog [4]; [25]) was 12.5 mg/kg/day. For the same molecule, the NOAEL (dog [4]; [25]) was under 12.5 mg/kg/day, the LEL (dog [4]; [26]) was 12.5 mg/kg/day and the NEL (dog [4]; [26]) was under 12.5 mg/kg/day. For the same molecule, the LOAEL (rat [5]; [27]) was 26 mg/kg/day, the NOAEL (rat [5]; [27]) was 5.2 mg/kg/day and the LEL (rat [5]; [25]) was 5.2 mg/kg/day. For the same molecule, the NEL (rat [5]; systemic / hematology / methemoglobin / methemoglobin + systemic / clinical chemistry / thyroxine (t4) / thyroxine (t4), total + systemic / …) was 2.6 mg/kg/day, the LOAEL (dog [6]; [25]) was 9.6 mg/kg/day and the NOAEL (dog [6]; [25]) was under 9.6 mg/kg/day. It also gave an LEL (dog [6]; [28]) of 9.6 mg/kg/day, an NEL (dog [6]; [28]) of under 9.6 mg/kg/day and an LOAEL (rat [7]; [29]) of over 54 mg/kg/day. For the same molecule, the NOAEL (rat [7]; [29]) was at least 54 mg/kg/day, the LEL (rat [7]; [30]) was 25 mg/kg/day and the NEL (rat [7]; [30]) was 5.9 mg/kg/day. It also gave an LOAEL (rat [7]; [31]) of 54 mg/kg/day, an NEL (rat [7]; [31]) of 4.7 mg/kg/day and an NOAEL (rat [7]; [31]) of 18 mg/kg/day. For the same molecule, the LEL (rat [7]; group: systemic, systemic / pathology microscopic / lung / focal cellular change + systemic / pathology microscopic / seminal vesicle / secretory fluid) was 18 mg/kg/day, the LOAEL (mouse [8]; systemic / hematology / anemia / anemia - heinz body) was 109 mg/kg/day and the LEL (mouse [8]; [32]) was 109 mg/kg/day. For the same molecule, the NEL (mouse [8]; [32]) was 21.7 mg/kg/day, the NOAEL (mouse [8]; [32]) was 21.7 mg/kg/day and the LEL (rat [9]; [33]) was 1000 mg/kg/day. For the same molecule, the LOAEL (rat [9]; [33]) was 1000 mg/kg/day, the NEL (rat [9]; [33]) was 100 mg/kg/day and the NOAEL (rat [9]; [33]) was 100 mg/kg/day. The LEL (rat [9]; [34]) was 1000 mg/kg/day, the LOAEL (rat [9]; [34]) was 1000 mg/kg/day and the NEL (rat [9]; [34]) was 100 mg/kg/day. For the same molecule, the NOAEL (rat [9]; [34]) was 100 mg/kg/day, the LOAEL (rat [10]; [35]) was 16.1 mg/kg/day and the NOAEL (rat [10]; [35]) was 3.3 mg/kg/day. For the same molecule, the LEL (rat [10]; [36]) was 3.18 mg/kg/day, the NEL (rat [10]; [36]) was under 3.18 mg/kg/day and the LEL (dog [11]) was 4.97 mg/kg/day. For the same molecule, the LOAEL (dog [11]) was 4.97 mg/kg/day, the NEL (dog [11]) was 0.17 mg/kg/day and the NOAEL (dog [11]) was 0.17 mg/kg/day. The LEL (rabbit [12]; [37]) was 450 mg/kg/day, the LOAEL (rabbit [12]; [37]) was 450 mg/kg/day and the NEL (rabbit [12]; [37]) was 150 mg/kg/day. The NOAEL (rabbit [12]; [37]) was 150 mg/kg/day, the LOAEL (rabbit [12]; group: maternal, systemic / in life observation / body weight / body weight gain) was 450 mg/kg/day and the LEL (rabbit [12]; [38]) was 450 mg/kg/day. The NEL (rabbit [12]; [38]) was 150 mg/kg/day, the NOAEL (rabbit [12]; [38]) was 150 mg/kg/day and the LOAEL (rat [13]; group: offspring, systemic / in life observation / body weight / offspring (pup) weight) was 110 mg/kg/day. It also gave an NOAEL (rat [13]; group: offspring, systemic / in life observation / body weight / offspring (pup) weight + systemic / organ weight / heart / absolute + systemic / organ weight…) of 20 mg/kg/day, an LEL (rat [13]; [39]) of 4 mg/kg/day and an NEL (rat [13]; [39]) of under 4 mg/kg/day. For the same molecule, the LEL (rat [13]; [40]) was 20 mg/kg/day, the LOAEL (rat [13]; [40]) was 20 mg/kg/day and the NEL (rat [13]; [41]) was 4 mg/kg/day. The NOAEL (rat [13]; [41]) was 4 mg/kg/day, the LEL (rat [13]; [42]) was 110 mg/kg/day and the LOAEL (rat [13]; [42]) was over 110 mg/kg/day. For the same molecule, the NEL (rat [13]; [42]) was 20 mg/kg/day, the NOAEL (rat [13]; [42]) was at least 110 mg/kg/day and the LEL (rat [14]; [43]) was 500 mg/kg/day. It also gave an LOAEL (rat [14]; [43]) of 500 mg/kg/day, an NEL (rat [14]; [43]) of 100 mg/kg/day and an NOAEL (rat [14]; [43]) of 100 mg/kg/day. It also gave an LEL (rat [14]; [44]) of 100 mg/kg/day, an LOAEL (rat [14]; [44]) of 100 mg/kg/day and an NEL (rat [14]; [45]) of 10 mg/kg/day. The NOAEL (rat [14]; [45]) was 10 mg/kg/day.

In the case of CC(C)Oc1cccc(NC(=O)c2ccccc2C(F)(F)F)c1 [Flutolanil], the LOAEL (dog [15]; [46]) is reported as 250 mg/kg/day, the NOAEL (dog [15]; [46]) is reported as 50 mg/kg/day and the LEL (dog [15]; [47]) is reported as 50 mg/kg/day. It also gave an NEL (dog [15]; [47]) of under 50 mg/kg/day, an LOAEL (mouse [16]; systemic / in life observation / body weight / body weight gain) of 839 mg/kg/day and an NOAEL (mouse [16]; systemic / in life observation / body weight / body weight gain + systemic / organ weight / liver / absolute + systemic / organ weight / …) of 168 mg/kg/day. For the same molecule, the LEL (mouse [16]; systemic / pathology microscopic / liver / vacuolization) was 162 mg/kg/day, the NEL (mouse [16]; systemic / pathology microscopic / liver / vacuolization + systemic / in life observation / body weight / body weight gain) was 32 mg/kg/day and the LOAEL (rat [17]; systemic / in life observation / body weight / body weight + systemic / organ weight / liver / relative to body weight) was 460 mg/kg/day. It also gave an LEL (rat [17]; [48]) of 460 mg/kg/day, an NOAEL (rat [17]; [48]) of 86.9 mg/kg/day and an NEL (rat [17]; systemic / organ weight / liver / relative to body weight) of 86.9 mg/kg/day. It also gave an LEL (dog [18]; [49]) of 400 mg/kg/day, an LOAEL (dog [18]; [49]) of 400 mg/kg/day and an NEL (dog [18]; [50]) of 80 mg/kg/day. It also gave an NOAEL (dog [18]; [50]) of 80 mg/kg/day, an LEL (rat [19]; [51]) of 37 mg/kg/day and an NEL (rat [19]; [51]) of under 37 mg/kg/day. It also gave an LOAEL (rat [19]; systemic / organ weight / liver / absolute + systemic / organ weight / liver / relative to body weight) of 339 mg/kg/day and an NOAEL (rat [19]; systemic / organ weight / liver / absolute + systemic / organ weight / liver / relative to body weight + systemic / clinical chemistry / …) of 44 mg/kg/day.

— EPA's ToxRefDB 2
